# Reference: US12448394B2, “Heterocyclic pyrazole derivatives as type III receptor tyrosine kinase inhibitors” (DEVELOPMENT CENTER FOR BIOTECHNOLOGY, priority 2019, dated 2025)
# Biological target: T1, FLT3-D835Y mutant kinase (Homo sapiens, UniProt P36888, D835Y)
# T1 construct: purchased SignalChem
# T1 sequence (P36888 27-993 D835Y): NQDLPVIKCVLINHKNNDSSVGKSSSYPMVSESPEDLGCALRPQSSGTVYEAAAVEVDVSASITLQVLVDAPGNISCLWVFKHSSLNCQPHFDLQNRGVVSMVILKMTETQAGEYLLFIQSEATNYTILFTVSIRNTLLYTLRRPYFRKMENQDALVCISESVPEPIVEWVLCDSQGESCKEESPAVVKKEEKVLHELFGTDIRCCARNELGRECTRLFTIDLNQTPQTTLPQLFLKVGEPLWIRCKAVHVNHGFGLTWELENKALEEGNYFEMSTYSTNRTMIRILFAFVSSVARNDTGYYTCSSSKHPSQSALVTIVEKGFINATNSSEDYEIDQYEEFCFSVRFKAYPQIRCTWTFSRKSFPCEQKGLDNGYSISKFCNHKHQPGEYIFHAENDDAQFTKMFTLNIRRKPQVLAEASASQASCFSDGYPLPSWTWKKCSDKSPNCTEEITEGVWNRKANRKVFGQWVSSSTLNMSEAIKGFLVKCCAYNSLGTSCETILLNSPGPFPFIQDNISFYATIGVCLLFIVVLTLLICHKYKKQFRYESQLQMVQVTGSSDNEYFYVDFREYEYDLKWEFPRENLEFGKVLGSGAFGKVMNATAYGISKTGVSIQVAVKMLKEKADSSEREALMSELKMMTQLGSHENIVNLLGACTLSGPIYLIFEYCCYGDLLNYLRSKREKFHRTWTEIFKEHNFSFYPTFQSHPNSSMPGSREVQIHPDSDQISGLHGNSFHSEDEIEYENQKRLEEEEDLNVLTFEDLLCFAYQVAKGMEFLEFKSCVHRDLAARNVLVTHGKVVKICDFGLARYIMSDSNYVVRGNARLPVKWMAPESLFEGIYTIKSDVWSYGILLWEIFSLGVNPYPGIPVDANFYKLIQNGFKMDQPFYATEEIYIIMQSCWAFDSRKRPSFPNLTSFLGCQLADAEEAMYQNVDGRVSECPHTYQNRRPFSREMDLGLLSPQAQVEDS
# Assay: FLT3-D835Y mutant kinase assay (AlphaScreen)
# Assay type: biochemical
# Details: read-out: Ranking of IC50 values, FLT3-D835Y
# Method in brief: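 AlphaScreen readout of biotin-poly(Glu4:Tyr1) phosphorylation by 1 ng recombinant FLT3-D835Y. Conditions were 10 μM ATP, 10 mM MgCl2, MOPS pH 7.0, 30 min at 30 °C, EDTA stop. Compounds were serially diluted in duplicate to derive IC50.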
row,IC50 [nM],SMILES
1,< 1,"COc1ccc(-c2cc3c(s2)Cc2c(-c4ccc5cnn(C)c5c4)n[nH]c2-3)cn1 [Compound 4, 6-(6-methoxypyridin-3-yl)-3-(1-methyl-1H-indazol-6-yl)-1,4-dihydrothieno [2′,3′:4,5]cyclopenta[1,2-c] pyrazole]"
2,1 to 10,"Cc1n[nH]c2cc(-c3n[nH]c4c3Cc3sc(-c5ccc(CN6CCOCC6)cc5)cc3-4)ccc12 [Compound 81, 4-(4-(3-(3-methyl-1H-indazol-6-yl)-1,4-dihydro-thieno[2′,3′:4,5]cyclopenta [1,2-c]pyrazol-6-yl)benzyl)morpholine]"
3,1 to 10,"Cn1ncc2ccc(-c3n[nH]c4c3Cc3sc(-c5ccc(N6CCOCC6)nc5)cc3-4)cc21 [Compound 82, 4-(5-(3-(1-methyl-1H-indazol-6-yl)-1,4-dihydro-thieno[2′,3′:4,5]cyclopenta [1,2-c]pyrazol-6-yl)pyridin-2-yl)morpholine]"
4,< 1,"CN1CCN(Cc2ccc(-c3cc4c(s3)Cc3c(-c5ccc6cn[nH]c6c5)n[nH]c3-4)cc2)CC1 [Compound 83, 3-(1H-indazol-6-yl)-6-(4-((4-methylpiperazin-1-yl)methyl)phenyl)-1,4-dihydrothieno[2′,3′:4,5] cyclopenta[1,2-c]pyrazole]"
5,< 1,"CN1CCN(Cc2ccc(-c3cc4c(s3)Cc3c(-c5ccc6cnn(C)c6c5)n[nH]c3-4)cc2)CC1 [Compound 84, 3-(1-methyl-1H-indazol-6-yl)-6-(4-((4-methylpiperazin-1-yl)methyl)phenyl)-1,4-dihydrothieno [2′,3′:4,5]cyclopenta [1,2-c]pyrazole]"
6,< 1,"CN1CCN(c2ccc(-c3cc4c(s3)Cc3c(-c5ccc6cnn(C)c6c5)n[nH]c3-4)cn2)CC1 [Compound 85, 3-(1-methyl-1H-indazol-6-yl)-6-(6-(4-methyl-piperazin-1-yl)pyridin-3-yl)-1,4-dihydrothieno [2′,3′:4,5]cyclopenta [1,2-c]pyrazole]"
7,1 to 10,"Cn1ncc2ccc(-c3n[nH]c4c3Cc3sc(-c5ccnc(Cl)c5)cc3-4)cc21 [Compound 86, 6-(2-chloropyridin-4-yl)-3-(1-methyl-1H-indazol-6-yl)-1,4-dihydrothieno [2′,3′:4,5]cyclopenta [1,2-c]pyrazole]"
8,< 1,"CN1CCN(c2cc(-c3cc4c(s3)Cc3c(-c5ccc6cnn(C)c6c5)n[nH]c3-4)ccn2)CC1 [Compound 87, 3-(1-methyl-1H-indazol-6-yl)-6-(2-(4-methyl-piperazin-1-yl)pyridin-4-yl)-1,4-dihydrothieno [2′,3′:4,5]cyclopenta [1,2-c]pyrazole]"
9,1 to 10,"Cn1ncc2ccc(-c3n[nH]c4c3Cc3sc(-c5ccc(CN6CCOCC6)c(F)c5F)cc3-4)cc21 [Compound 88, 4-(2,3-difluoro-4-(3-(1-methyl-1H-indazol-6-yl)-1,4-dihydrothieno [2′,3′:4,5]cyclopenta [1,2-c]pyrazol-6-yl)benzyl)morpholine]"
10,1 to 10,"Cn1nnc2ccc(-c3n[nH]c4c3Cc3sc(-c5ccc(CN6CCOCC6)cc5)cc3-4)cc21 [Compound 89, 4-(4-(3-(1-methyl-1H-benzo[d][1,2,3]triazol-6-yl)-1,4-dihydrothieno [2′,3′:4,5]cyclopenta [1,2-c]pyrazol-6-yl)benzyl)morpholine]"
11,1 to 10,"Cn1ncc2ccc(-c3n[nH]c4c3Cc3sc(-c5ccc(CN6CCOCC6)cc5OC(F)(F)F)cc3-4)cc21 [Compound 90, 4-(4-(3-(1-methyl-1H-indazol-6-yl)-1,4-dihydro-thieno[2′,3′:4,5]cyclopenta [1,2-c]pyrazol-6-yl)-3-(trifluoromethoxy)benzyl) morpholine]"
12,1 to 10,"Cc1cc(CN2CCOCC2)ccc1-c1cc2c(s1)Cc1c(-c3ccc4cnn(C)c4c3)n[nH]c1-2 [Compound 91, 4-(3-methyl-4-(3-(1-methyl-1H-indazol-6-yl)-1,4-dihydrothieno [2′,3′:4,5]cyclopenta [1,2-c]pyrazol-6-yl)benzyl)morpholine]"
13,< 1,"Cn1ncc2ccc(-c3n[nH]c4c3Cc3sc(-c5ccc(N)nc5)cc3-4)cc21 [Compound 92, 5-(3-(1-methyl-1H-indazol-6-yl)-1,4-dihydro-thieno[2′,3′:4,5]cyclopenta [1,2-c]pyrazol-6-yl) pyridin-2-amine]"
14,1 to 10,"CN(C)Cc1ccc(-c2cc3c(s2)Cc2c(-c4ccc5cnn(C)c5c4)n[nH]c2-3)cn1 [Compound 93, N,N-dimethyl-1-(5-(3-(1-methyl-1H-indazol-6-yl)-1,4-dihydrothieno [2′,3′:4,5]cyclopenta [1,2-c]pyrazol-6-yl)pyridin-2-yl)methanamine]"
15,1 to 10,"CN(C)Cc1ccc(-c2cc3c(s2)Cc2c(-c4ccc5cnn(C)c5c4)n[nH]c2-3)cc1 [Compound 94, N,N-dimethyl-1-(4-(3-(1-methyl-1H-indazol-6-yl)-1,4-dihydrothieno [2′,3′:4,5]cyclopenta [1,2-c]pyrazol-6-yl)phenyl)methanamine]"
